One assay relates to NCI-H1975. The assay is described as follows: Antiproliferative activity against human NCI-H1975 cells harboring EGFR L858R/T790M mutant assessed as reduction in cell viability by CCK8 assay. The class given is functional, cell-based.
Assay [1] addresses Epidermal growth factor receptor (Homo sapiens, UniProt P00533). The assay is described as follows: Inhibition of wild type EGFR (unknown origin) by ELISA.
Assay [2] is described as follows: Selectivity index, ratio of IC50 for human A431 cells overexpressing EGFR assessed as reduction in cell viability by CCK8 assay to IC50 for human NCI-H1975 cells harboring EGFR […]/T790M assessed as reduction in cell viability by CCK8 assay. The format is functional.
Assay [3] concerns BaF3. The experiment in a line: Induction of apoptosis in mouse BAF3 cells harboring EGFR 19D/T790M/C797S mutant assessed as late apoptotic cells at 10 uM measured after 24 hrs by annexinV-FITC/propidium iodide staining based flow cytometry analysis (reference value: 2.03 %). The class given is functional.
Assay [4] relates to Epidermal growth factor receptor (Homo sapiens), P00533 [UNDEFINED MUTATION]. The experiment in a line: Inhibition of EGFR 19D/T790M/C797S mutant (unknown origin) expressed in mouse BAF3 cells assessed as reduction in EGF-stimulated Akt phosphorylation at 5 to 100 uM pretreated for 3 hrs followed by EGF stimulation by Western blot analysis. The format is cell-based.
Chain of Epidermal growth factor receptor (Homo sapiens), P00533 [UNDEFINED MUTATION] (P00533 whole entry, looked up, stated change not applied): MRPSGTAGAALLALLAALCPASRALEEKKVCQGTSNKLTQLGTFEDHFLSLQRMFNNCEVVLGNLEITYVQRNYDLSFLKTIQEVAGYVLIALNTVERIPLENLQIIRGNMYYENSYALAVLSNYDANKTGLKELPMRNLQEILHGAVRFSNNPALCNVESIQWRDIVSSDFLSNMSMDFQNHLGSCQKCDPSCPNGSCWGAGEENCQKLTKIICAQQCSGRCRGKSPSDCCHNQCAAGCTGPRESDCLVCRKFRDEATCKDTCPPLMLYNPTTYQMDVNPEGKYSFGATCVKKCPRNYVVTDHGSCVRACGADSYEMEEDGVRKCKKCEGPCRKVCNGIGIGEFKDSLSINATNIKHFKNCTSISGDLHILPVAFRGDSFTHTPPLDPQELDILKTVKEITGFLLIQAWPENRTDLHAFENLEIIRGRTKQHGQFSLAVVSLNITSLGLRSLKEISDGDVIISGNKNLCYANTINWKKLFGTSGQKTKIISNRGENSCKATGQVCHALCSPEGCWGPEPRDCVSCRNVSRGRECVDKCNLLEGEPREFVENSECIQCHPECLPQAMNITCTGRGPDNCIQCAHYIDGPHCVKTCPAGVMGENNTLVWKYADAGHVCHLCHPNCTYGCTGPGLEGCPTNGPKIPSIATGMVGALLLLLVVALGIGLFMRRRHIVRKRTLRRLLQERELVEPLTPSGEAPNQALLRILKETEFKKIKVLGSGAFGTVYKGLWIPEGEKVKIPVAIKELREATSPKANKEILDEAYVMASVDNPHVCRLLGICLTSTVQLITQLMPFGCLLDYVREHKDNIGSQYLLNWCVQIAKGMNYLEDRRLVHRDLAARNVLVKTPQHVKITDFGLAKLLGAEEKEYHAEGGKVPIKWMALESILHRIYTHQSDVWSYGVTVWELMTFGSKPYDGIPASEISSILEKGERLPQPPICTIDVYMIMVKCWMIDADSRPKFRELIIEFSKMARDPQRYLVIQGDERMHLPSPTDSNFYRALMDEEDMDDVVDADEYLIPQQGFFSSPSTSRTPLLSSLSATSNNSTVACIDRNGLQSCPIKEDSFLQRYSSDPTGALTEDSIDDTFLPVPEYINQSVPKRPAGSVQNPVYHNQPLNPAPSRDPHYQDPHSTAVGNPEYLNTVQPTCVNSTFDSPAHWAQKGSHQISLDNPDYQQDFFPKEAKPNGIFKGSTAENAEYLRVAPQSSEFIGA
In assay [5] the test system is BaF3. The assay is described as follows: Cell cycle arrest in mouse BAF3 cells harboring EGFR 19D/T790M/C797S mutant assessed as accumulation at G2 phase at 10 uM measured after 24 hrs by flow cytometry analysis (reference value: 7.94 %). The format is functional.
The test system of assay [6] is BaF3. The experiment in a line: Induction of apoptosis in mouse BAF3 cells harboring EGFR 19D/T790M/C797S mutant assessed as early apoptotic cells at 10 uM measured after 24 hrs by annexinV-FITC/propidium iodide staining based flow cytometry analysis (reference value: 15.09 %). The class given is functional.
Assay [7] relates to BaF3. The experiment in a line: Induction of apoptosis in mouse BAF3 cells harboring EGFR 19D/T790M/C797S mutant assessed as early apoptotic cells at 1 uM measured after 24 hrs by annexinV-FITC/propidium iodide staining based flow cytometry analysis (reference value: 15.09 %). The format is functional.
The subject of assay [8] is BaF3. The experiment in a line: Induction of apoptosis in mouse BAF3 cells harboring EGFR 19D/T790M/C797S mutant assessed as early apoptotic cells at 50 uM measured after 24 hrs by annexinV-FITC/propidium iodide staining based flow cytometry analysis (reference value: 15.09 %). The format is functional.
Assay [9] deals with BaF3. The experiment in a line: Cell cycle arrest in mouse BAF3 cells harboring EGFR 19D/T790M/C797S mutant assessed as accumulation at G1 phase measured after 24 hrs by flow cytometry analysis. The class given is functional, cell-based.
Assay [10] has as its system BaF3. The assay is described as follows: Cell cycle arrest in mouse BAF3 cells harboring EGFR 19D/T790M/C797S mutant assessed as accumulation at G2 phase at 20 uM measured after 24 hrs by flow cytometry analysis (reference value: 7.94 %). The format is functional.
The subject of assay [11] is BaF3. The assay is described as follows: Induction of apoptosis in mouse BAF3 cells harboring EGFR 19D/T790M/C797S mutant assessed as late apoptotic cells at 1 uM measured after 24 hrs by annexinV-FITC/propidium iodide staining based flow cytometry analysis (reference value: 2.03 %). The format is functional.
The test system of assay [12] is BaF3. The experiment in a line: Cell cycle arrest in mouse BAF3 cells harboring EGFR 19D/T790M/C797S mutant assessed as accumulation at S phase at 10 uM measured after 24 hrs by flow cytometry analysis (reference value: 52.43 %). The format is functional.
Assay [13] concerns BaF3. The experiment in a line: Cell cycle arrest in mouse BAF3 cells harboring EGFR 19D/T790M/C797S mutant assessed as accumulation at G1 phase at 20 uM measured after 24 hrs by flow cytometry analysis (reference value: 39.62 %). The class given is functional.
Assay [14] has as its system BaF3. The experiment in a line: Induction of apoptosis in mouse BAF3 cells harboring EGFR 19D/T790M/C797S mutant assessed as necrotic cells at 50 uM measured after 24 hrs by annexinV-FITC/propidium iodide staining based flow cytometry analysis (reference value: 0.13 %). The class given is functional.
For assay [15], the target named is Epidermal growth factor receptor (Homo sapiens, UniProt P00533, L858R/T790M). The experiment in a line: Inhibition of EGFR L858R/T790M mutant (unknown origin) by ELISA.
Assay [16] concerns BaF3. The experiment in a line: Induction of apoptosis in mouse BAF3 cells harboring EGFR 19D/T790M/C797S mutant assessed as live cells at 50 uM measured after 24 hrs by annexinV-FITC/propidium iodide staining based flow cytometry analysis (reference value: 82.74 %). The class given is functional.
Assay [17] relates to BaF3. The experiment in a line: Cell cycle arrest in mouse BAF3 cells harboring EGFR 19D/T790M/C797S mutant assessed as accumulation at G2 phase at 1 uM measured after 24 hrs by flow cytometry analysis (reference value: 7.94 %). The format is functional.
Assay [18] deals with BaF3. The experiment in a line: Induction of apoptosis in mouse BAF3 cells harboring EGFR 19D/T790M/C797S mutant measured after 24 hrs by annexinV-FITC/propidium iodide staining based flow cytometry analysis. The format is functional, cell-based.
Assay [19] deals with BaF3. The experiment in a line: Cell cycle arrest in mouse BAF3 cells harboring EGFR 19D/T790M/C797S mutant assessed as accumulation at G1 phase at 10 uM measured after 24 hrs by flow cytometry analysis (reference value: 39.62 %). The class given is functional.
Assay [20] relates to BaF3. The experiment in a line: Induction of apoptosis in mouse BAF3 cells harboring EGFR 19D/T790M/C797S mutant assessed as live cells at 1 uM measured after 24 hrs by annexinV-FITC/propidium iodide staining based flow cytometry analysis (reference value: 82.74 %). The format is functional.
Assay [21] deals with Epidermal growth factor receptor (Homo sapiens), P00533 [UNDEFINED MUTATION]. The assay is described as follows: Inhibition of EGFR 19D/T790M/C797S mutant (unknown origin) expressed in mouse BAF3 cells assessed as reduction in EGF-stimulated EGFR phosphorylation pretreated for 3 hrs followed by EGF stimulation by Western blot analysis. The class given is cell-based.
The test system is the same in assay [22]. The assay is described as follows: Inhibition of EGFR 19D/T790M/C797S mutant (unknown origin) expressed in mouse BAF3 cells assessed as reduction in EGF-stimulated ERK phosphorylation pretreated for 3 hrs followed by EGF stimulation by Western blot analysis. The class given is cell-based.
Assay [23] has as its target Epidermal growth factor receptor (Homo sapiens, UniProt P00533, C797S/L858R/T790M). The assay is described as follows: Inhibition of EGFR L858R/T790M/C797S mutant (unknown origin) by ELISA.
Assay [24] relates to BaF3. The experiment in a line: Cell cycle arrest in mouse BAF3 cells harboring EGFR 19D/T790M/C797S mutant assessed as accumulation at S phase at 20 uM measured after 24 hrs by flow cytometry analysis (reference value: 52.43 %). The class given is functional.
The subject of assay [25] is BaF3. The experiment in a line: Induction of apoptosis in mouse BAF3 cells harboring EGFR 19D/T790M/C797S mutant assessed as necrotic cells at 10 uM measured after 24 hrs by annexinV-FITC/propidium iodide staining based flow cytometry analysis (reference value: 0.13 %). The class given is functional.
For assay [26], the system named is BaF3. The experiment in a line: Cell cycle arrest in mouse BAF3 cells harboring EGFR 19D/T790M/C797S mutant assessed as accumulation at S phase at 1 uM measured after 24 hrs by flow cytometry analysis (reference value: 52.43 %). The format is functional.
Assay [27] has as its system BaF3. The experiment in a line: Induction of apoptosis in mouse BAF3 cells harboring EGFR 19D/T790M/C797S mutant assessed as late apoptotic cells at 50 uM measured after 24 hrs by annexinV-FITC/propidium iodide staining based flow cytometry analysis (reference value: 2.03 %). The format is functional.
The test system of assay [28] is BaF3. The assay is described as follows: Induction of apoptosis in mouse BAF3 cells harboring EGFR 19D/T790M/C797S mutant assessed as live cells at 10 uM measured after 24 hrs by annexinV-FITC/propidium iodide staining based flow cytometry analysis (reference value: 82.74 %). The format is functional.
The test system of the next assay is A-431. The experiment in a line: Antiproliferative activity against human A431 cells overexpressing EGFR assessed as reduction in cell viability by CCK8 assay. The format is functional, cell-based.
Assay [29] has as its system BaF3. The assay is described as follows: Antiproliferative activity against mouse BAF3 cells harboring EGFR 19D/T790M/C797S mutant assessed as reduction in cell viability by CCK8 assay. The format is functional, cell-based.
In assay [30] the test system is BaF3. The experiment in a line: Induction of apoptosis in mouse BAF3 cells harboring EGFR 19D/T790M/C797S mutant assessed as necrotic cells at 1 uM measured after 24 hrs by annexinV-FITC/propidium iodide staining based flow cytometry analysis (reference value: 0.13 %). The class given is functional.
Assay [31] addresses Epidermal growth factor receptor (Homo sapiens, UniProt P00533, C797S/EX19DEL/T790M). The assay is described as follows: Inhibition of EGFR 19D/T790M/C797S mutant (unknown origin) by ELISA.
The test system of assay [32] is BaF3. The experiment in a line: Cell cycle arrest in mouse BAF3 cells harboring EGFR 19D/T790M/C797S mutant assessed as accumulation at G1 phase at 1 uM measured after 24 hrs by flow cytometry analysis (reference value: 39.62 %). The format is functional.
Assay [33] can be described thus: Selectivity index, ratio of IC50 for human A431 cells overexpressing EGFR assessed as reduction in cell viability by CCK8 assay to IC50 for mouse BAF3 cells harboring EGFR 19D/T790M/C797S assessed as reduction in cell viability by CCK8 assay. The format is functional.

Molecules are shown by their SMILES. Calls of active or inactive are those of the source. The calls are words filed in the database; no cut-off is given here.

Chain of Epidermal growth factor receptor (Homo sapiens, UniProt P00533, C797S/EX19DEL/T790M) (P00533 whole entry, looked up, stated change not applied): as above
Chain of Epidermal growth factor receptor (Homo sapiens, UniProt P00533) (P00533 whole entry): as the sequence (P00533 whole entry, looked up, stated change not applied) above
Chain of Epidermal growth factor receptor (Homo sapiens, UniProt P00533, C797S/L858R/T790M) (P00533 25-1210 T790M/C797S/L858R limits assumed): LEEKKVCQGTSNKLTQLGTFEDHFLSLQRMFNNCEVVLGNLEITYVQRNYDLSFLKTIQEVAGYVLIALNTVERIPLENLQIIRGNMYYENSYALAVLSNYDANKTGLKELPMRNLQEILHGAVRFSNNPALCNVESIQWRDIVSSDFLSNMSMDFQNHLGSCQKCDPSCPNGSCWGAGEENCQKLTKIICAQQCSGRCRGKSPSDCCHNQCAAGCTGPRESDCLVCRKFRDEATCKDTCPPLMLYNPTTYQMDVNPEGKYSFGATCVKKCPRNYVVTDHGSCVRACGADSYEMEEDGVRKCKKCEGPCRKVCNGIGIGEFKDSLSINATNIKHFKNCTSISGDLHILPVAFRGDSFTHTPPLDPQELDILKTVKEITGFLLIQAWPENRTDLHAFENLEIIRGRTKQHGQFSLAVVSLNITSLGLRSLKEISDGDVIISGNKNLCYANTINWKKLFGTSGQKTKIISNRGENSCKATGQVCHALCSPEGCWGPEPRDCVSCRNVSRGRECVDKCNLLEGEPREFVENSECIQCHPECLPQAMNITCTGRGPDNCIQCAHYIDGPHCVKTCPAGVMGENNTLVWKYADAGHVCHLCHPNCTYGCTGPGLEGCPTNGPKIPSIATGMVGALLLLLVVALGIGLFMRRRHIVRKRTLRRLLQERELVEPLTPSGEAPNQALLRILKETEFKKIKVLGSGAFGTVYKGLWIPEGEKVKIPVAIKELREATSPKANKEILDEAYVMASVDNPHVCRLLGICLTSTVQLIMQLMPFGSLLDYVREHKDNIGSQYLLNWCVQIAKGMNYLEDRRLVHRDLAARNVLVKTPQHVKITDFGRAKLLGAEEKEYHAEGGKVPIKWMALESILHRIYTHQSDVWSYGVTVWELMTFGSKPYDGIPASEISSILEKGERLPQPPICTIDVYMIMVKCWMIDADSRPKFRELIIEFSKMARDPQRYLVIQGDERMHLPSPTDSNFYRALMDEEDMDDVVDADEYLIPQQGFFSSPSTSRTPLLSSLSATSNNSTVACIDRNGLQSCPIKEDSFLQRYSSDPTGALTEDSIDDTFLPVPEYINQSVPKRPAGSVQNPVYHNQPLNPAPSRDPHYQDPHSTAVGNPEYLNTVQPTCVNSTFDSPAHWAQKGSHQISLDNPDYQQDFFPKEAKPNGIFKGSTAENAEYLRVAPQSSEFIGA

In the case of `COc1cc(N(C)CCN(C)C)ccc1Nc1nccc(-c2cn(CCCO)c3ccccc23)n1`, the IC50 is 16200 nM in the assay with NCI-H1975; greater than 1000 nM in assay [1]; 157 nM in assay [15]; 218 nM in [23]; 20500 nM in the assay on A-431; 8510 nM with BaF3 [29]. In assay [31], this compound registered a half-maximal inhibitory concentration (IC50) of 15.3 nM. Further, the figures for the “Ratio IC50” value in assay [2] and in assay [33] were 1.27 and 2.41, respectively. Also, the Activity with BaF3 [3] is 14.53%; with BaF3 [5] it was 10.25%; with BaF3 [6], 24.18%; in the assay on BaF3 [7], 17%; in the assay on BaF3 [8], 74.01%; with BaF3 [9], “Dose-dependent effect”. The Activity in the assay with BaF3 [10] was determined as 10.02%; in the assay with BaF3 [11], 2.74%; in the assay on BaF3 [12], 37.81%; in the assay with BaF3 [13], 53.37%; with BaF3 [14] it was 0.42%; in the assay on BaF3 [16], 1.76%. The Activity in the assay with BaF3 [17] was 10.52%; in the assay with BaF3 [18] it was “Dose-dependent effect”; with BaF3 [19] it was 51.94%; in the assay on BaF3 [20], 80.07%; in the assay on BaF3 [24] it was 26.61%; with BaF3 [25], 0.4%. Further, the Activity in the assay with BaF3 [26] is listed as 40.51%; with BaF3 [27] it was 23.81%; in the assay on BaF3 [28], 60.89%; in the assay on BaF3 [30], 0.19%; in the assay on BaF3 [32], 48%. Further, the inhibition entry in assay [4] was “Active”. The inhibition result in [21] and in assay [22] was “Dose-dependent effect” each time.

As to `CCC(=O)Nc1cc(Nc2nccc(-c3cn(CCCO)c4ccccc34)n2)c(OC)cc1F`, the IC50 was greater than 1000 nM in assay [1], 127 nM in [15], 422 nM in assay [23] and 72.5 nM in assay [31].

Regarding `CCC(=O)Nc1cc(Nc2nccc(-c3c[nH]c4c(CCO)cccc34)n2)c(OC)cc1F`, the IC50 in assay [1] is greater than 1000 nM; in assay [15], 208 nM; in [23], greater than 1000 nM; in assay [31], 663 nM.

Take `C=CC(=O)Nc1cc(Nc2nccc(-c3cn(C)c4ccccc34)n2)c(OC)cc1N(C)CCN(C)C` [OSIMERTINIB]: the results for the IC50 in the assay on NCI-H1975, in the assay with A-431 and in the assay with BaF3 [29] were […], […] and 5470 nM, respectively. The Activity worked out at 8.93% in the assay on BaF3 [17], 45.58% in the assay on BaF3 [26] and 45.49% in the assay with BaF3 [32].

Consider `CCC(=O)Nc1cc(Nc2nccc(-c3cn(CCO)c4ccccc34)n2)c(OC)cc1F`, for which the half-maximal inhibitory concentration (IC50) in [1] is greater than 1000 nM; in assay [15], 170 nM; in assay [23], greater than 1000 nM; in assay [31] it was 80.5 nM.

As to `CCC(=O)Nc1cc(Nc2nccc(-c3cn(CCCO)c4ccccc34)n2)c(OC)cc1N(C)CCN(C)C`, the IC50 in assay [1] was greater than 1000 nM; in [15], 169 nM; in assay [23], 638 nM; in assay [31], 73 nM.

Consider `C=CC(=O)Nc1cc(Nc2nccc(-c3cn(CCCO)c4ccccc34)n2)c(OC)cc1F`, for which the concentration for half-maximal inhibition (IC50) was 283 nM in assay [1], 2.2 nM in assay [15], greater than 1000 nM in assay [23] and 17.9 nM in [31].

On to `CCC(=O)Nc1cc(Nc2nccc(-c3cn(CCCO)c4ccc(F)cc34)n2)c(OC)cc1F`, for which the IC50 in [1] is greater than 1000 nM; in assay [15], 142 nM; in assay [23], 332 nM; in assay [31] it was 40.4 nM.

Values taken from ChEMBL document CHEMBL4622942, “Design, synthesis and biological evaluation of potent EGFR kinase inhibitors against 19D/T790M/C797S mutation” (Bioorg Med Chem Lett, 2020).
